Measured values published in patent US9520611B2, “Redox flow battery” (SAMSUNG ELECTRONICS CO., LTD., priority 2013, dated 2016).
Like-named read-outs stand apart in the source and are kept apart here.

Legend:
[1] = Cyclic voltammetry of organic electrolytic solution; assay type: physicochemical; conditions: unit inferred; Ag/Ag+ reference electrode (0.3 M AgNO3 in acetonitrile), carbon felt working electrode
Text: For the purpose of measurement of cyclic voltammetry, a cell that includes an Ag/Ag^+ electrode prepared by dissolving 0.3 M AgNO3 in an acetonitrile solvent as a reference electrode, a carbon felt as a working electrode, and platinum as a counter electrode was used.
Referring to FIGS. 2A to 2C, the graphs of an electrolyte including a metal-ligand coordination compound show a reversible oxidation/reduction peak.

[2] = Solubility measurement in a non-aqueous polar solvent; assay type: physicochemical
Procedure: A density of the solution was measured and calculated in a molar concentration.

[3] = in 50 mL acetonitrile and propylene carbonate 1:1, calculated in a molar concentration, unit not given

Compound | E^0 [1] | Solubility [2] | Solubility compared with the compounds that include identical ligands (dipole moment sum 0) [2] | Solubility [2, 3]
Cc1ccnc(-c2cc(C)ccn2)c1.Cc1ccnc(-c2cc(C)ccn2)c1.O=S(=O)([N-]S(=O)(=O)C(F)(F)F)C(F)(F)F.O=S(=O)([N-]S(=O)(=O)C(F)(F)F)C(F)(F)F.[Fe+2].c1ccc(-c2ccccn2)nc1 [Preparation Example 1, Fe^2+-(4,4′-diMebpy)2 (bpy) [TFSI]2] | 0.56 V |  |  | 
O=S(=O)([N-]S(=O)(=O)C(F)(F)F)C(F)(F)F.O=S(=O)([N-]S(=O)(=O)C(F)(F)F)C(F)(F)F.O=[N+]([O-])c1cc2cccnc2c2ncccc12.[Fe+2].c1ccc(-c2ccccn2)nc1.c1ccc(-c2ccccn2)nc1 [Preparation Example 2, Fe^2+-(5-NO2-phenanthroline)(bpy)2 [TFSI]2] | 0.72 V |  |  | 
Clc1cc(-c2ccccn2)nc(-c2ccccn2)c1.O=S(=O)([N-]S(=O)(=O)C(F)(F)F)C(F)(F)F.O=S(=O)([N-]S(=O)(=O)C(F)(F)F)C(F)(F)F.[Fe+2].c1ccc(-c2cccc(-c3ccccn3)n2)nc1 [Preparation Example 3, Fe^2+-(terpy)(4′-chloro-terpy) [TFSI]2] | 0.72 V | 1.33 | higher solubility | 
O=S(=O)([N-]S(=O)(=O)C(F)(F)F)C(F)(F)F.O=S(=O)([N-]S(=O)(=O)C(F)(F)F)C(F)(F)F.[Fe+2].c1ccc(-c2ccccn2)nc1.c1ccc(-c2ccccn2)nc1.c1ccc(-c2ccccn2)nc1 [Preparation Example 4, Fe^2+-(bpy)3 [TFSI]2] | 0.68 V |  |  | 
Cc1ccnc(-c2cc(C)ccn2)c1.Cc1ccnc(-c2cc(C)ccn2)c1.Cc1ccnc(-c2cc(C)ccn2)c1.O=S(=O)([N-]S(=O)(=O)C(F)(F)F)C(F)(F)F.O=S(=O)([N-]S(=O)(=O)C(F)(F)F)C(F)(F)F.[Fe+2] [Preparation Example 5, Fe^2+-(4,4′-diMe-bpy)3 [TFSI]2] | 0.43 V | 0.65 |  | 
O=S(=O)([N-]S(=O)(=O)C(F)(F)F)C(F)(F)F.O=S(=O)([N-]S(=O)(=O)C(F)(F)F)C(F)(F)F.[Fe+2].c1ccc(-c2cccc(-c3ccccn3)n2)nc1.c1ccc(-c2cccc(-c3ccccn3)n2)nc1 [Preparation Example 7, Fe^2+-(terpy)2 [TFSI]2] | 0.7 V |  |  | 1.20
Clc1cc(-c2ccccn2)nc(-c2ccccn2)c1.Clc1cc(-c2ccccn2)nc(-c2ccccn2)c1.O=S(=O)([N-]S(=O)(=O)C(F)(F)F)C(F)(F)F.O=S(=O)([N-]S(=O)(=O)C(F)(F)F)C(F)(F)F.[Fe+2] [Preparation Example 8, Fe^2+-(4′-chloro-terpy)2 [TFSI]2] | 0.78 V |  |  | 0.75
Fe^2+-(NO2-phenanthroline)3 [TFSI]2 [Preparation Example 6] | 0.88 V | 1020 mM |  | 
